For 28 molecules, EC50 and CC50 results are on record in ChEMBL document CHEMBL1156829 (Proc Natl Acad Sci U S A, 2008).

The subject of data set [1] is Plasmodium falciparum. The data set can be described thus: NOVARTIS: Inhibition of Plasmodium falciparum 3D7 (drug-susceptible) proliferation in erythrocyte-based infection assay. In kind it is functional, organism-based. The following applies: Plasmodium falciparum, 3D7.
Data set [2] deals with Plasmodium falciparum. The data set can be described thus: NOVARTIS: Inhibition of Plasmodium falciparum W2 (drug-resistant) proliferation in erythrocyte-based infection assay. Format: functional, organism-based. The following applies: Plasmodium falciparum, W2; read-out: EC50.
Data set [3] in a line: NOVARTIS: Cytotoxicity against human hepatocellular carcinoma cell line (Huh7). Format: toxicity, cell-based, Huh-7. The following applies: Huh7 cells (hepatocellular carcinoma cell line).

The structures appear in SMILES notation. pEC50: −log10 of the molar value. Bounds are passed on as bounds.

A word on the pEC50: it is the EC50 on a negative log10 scale, so that one unit is a factor of ten. The CC50 is the concentration giving 50% cytotoxicity. Higher therefore signals better tolerance by the cells. Take `Oc1c2c(nc3cc(-c4ccc(Br)cc4)nn13)CCCC2`: the figures for the pEC50 in the data set with Plasmodium falciparum [1] and in the data set on Plasmodium falciparum [2] were 6.28 and 5.89, respectively. In data set [3], this molecule gave a CC50 of over 100000 nM.

In the case of `COC(=O)[C@@H]1C[C@@H](NC(=O)c2ccc(OC)cc2OC)CN1Cc1cc(C)ccc1C`, the negative-log EC50 (pEC50) was 5.97 in the data set with Plasmodium falciparum [1] and 5.88 in the data set on Plasmodium falciparum [2]. In data set [3], this molecule yielded a CC50 of over 100000 nM.

For the molecule `CCCOC(=O)C1=C(C)NC2=C(C(=O)CC(c3ccc(OC)c(OC)c3)C2)C1c1ccc(O)c(OCC)c1` (centres undefined), the figures for the negative logarithm of the EC50 (pEC50) in the data set on Plasmodium falciparum [1] and with Plasmodium falciparum [2] were 5.62 and 5.89, respectively. The same molecule yielded a cytotoxic concentration (CC50) in data set [3] of over 100000 nM.

In the case of `COc1ccc(C(=O)C[N+]2=C(C)c3ccc(C)n3CC2)cc1`, the negative-log EC50 (pEC50) was 5.93 in the data set on Plasmodium falciparum [1] and 5.89 with Plasmodium falciparum [2]. In data set [3], this molecule came in with a CC50 of over 100000 nM.

Take `Cc1cc(I)ccc1NC(=O)CNC(=O)OCc1ccccc1`: the pEC50 in the data set with Plasmodium falciparum [1] is under 4.90; with Plasmodium falciparum [2], 5.89. The cytotoxic concentration (CC50) in data set [3] is over 100000 nM.

Regarding `O=C(NCc1ccc(Cl)cc1)C(=O)NCc1ccccn1`, the figures for the pEC50 in the data set with Plasmodium falciparum [1] and in the data set on Plasmodium falciparum [2] were 5.88 and 6.98, respectively. In data set [3], this molecule displayed a CC50 of 8240 nM.

Take `O=C(NNC(=O)c1csnn1)c1ccc(Cl)cc1`: the pEC50 in the data set on Plasmodium falciparum [1] is 6.11; in the data set with Plasmodium falciparum [2], 5.89. The same molecule yielded a CC50 in data set [3] of over 100000 nM.

With `O=C(Nc1ccc(CC2=NCCCN2)cc1)c1ccc(C(=O)Nc2ccc(CC3=NCCCN3)cc2)cc1`, the values for the pEC50 with Plasmodium falciparum [1] and in the data set with Plasmodium falciparum [2] were 6.90 and 6.89, respectively. Further, the cytotoxic concentration (CC50) in data set [3] is over 10000 nM.

As to `CCOC(=O)C1=CN(c2cc(C)ccc2C)C=C(C(=O)OCC)C1c1ccccc1OC`, the pEC50 with Plasmodium falciparum [1] was 5.35; with Plasmodium falciparum [2], 5.89. For the same molecule, in data set [3], the CC50 was over 100000 nM.

As to `NC(=NOC(=O)c1ccccc1I)c1ccccn1`, the results for the negative-log EC50 (pEC50) in the data set on Plasmodium falciparum [1] and with Plasmodium falciparum [2] were 5.22 and 6.08, respectively. In addition, the cytotoxic concentration (CC50) in data set [3] was 63000 nM.

`COC(=O)c1c(NC(=O)c2c(-c3ccccc3)noc2C)sc2c1CCC2`: the pEC50 was 5.53 in the data set with Plasmodium falciparum [1] and 5.88 with Plasmodium falciparum [2]. The CC50 in data set [3] is over 100000 nM.

Take `CCCc1c(C)nc2ccc(Br)cc2c1O`: the pEC50 in the data set on Plasmodium falciparum [1] was 5.82; in the data set on Plasmodium falciparum [2], 5.87. For the same molecule, the CC50 in data set [3] was over 100000 nM.

Consider `N#CCSc1ncccc1C(=O)NCCc1ccc(Oc2ccccc2)cc1`, for which the negative-log EC50 (pEC50) was 5.79 with Plasmodium falciparum [1] and under 6.89 in the data set with Plasmodium falciparum [2]. The 50% cytotoxic concentration (CC50) in data set [3] was over 10000 nM.

In the case of `CN(C)/C=C1\Oc2ccccc2N=C1Cl`, the negative-log EC50 (pEC50) in the data set on Plasmodium falciparum [1] is 6.82; in the data set with Plasmodium falciparum [2] it was 6.88. In data set [3], this molecule returned a cytotoxic concentration (CC50) of over 10000 nM.

On to `CCCCOc1ccc(C(=O)Oc2ccccc2-c2nc3cc(C)ccn3c2NC(C)(C)CC(C)(C)C)cc1`, for which the pEC50 was 6.09 with Plasmodium falciparum [1] and 6.89 in the data set on Plasmodium falciparum [2]. Also, in data set [3], the CC50 is over 10000 nM.

For `COc1cccc2c(C)nc(N=C(N)N)nc12`, the pEC50 was 6.54 with Plasmodium falciparum [1] and 6.16 in the data set with Plasmodium falciparum [2]. Further, the CC50 in data set [3] was 53500 nM.

As for `COC(=O)CNC(c1ccccc1)c1cc(Br)ccc1NC(=O)C(Cc1ccccc1)NC(=O)OCc1ccccc1` (centres undefined), the negative logarithm of the EC50 (pEC50) in the data set with Plasmodium falciparum [1] is 5.39; in the data set on Plasmodium falciparum [2], 5.89. For the same molecule, the CC50 in data set [3] was over 100000 nM.

Turning to `c1ccc(-c2nn(-c3ccccc3)[n+](-c3cccc4ccccc34)n2)cc1`, the negative logarithm of the EC50 (pEC50) is under 6.38 with Plasmodium falciparum [1] and 6.88 in the data set with Plasmodium falciparum [2]. The molecule further came in with a cytotoxic concentration (CC50) in data set [3] of over 10000 nM.

Regarding `CC(C)(C)c1ccc(C(=O)N2CCCn3cccc3C2c2ccc(C(C)(C)C)cc2)cc1` (centres undefined), the pEC50 is 5.81 in the data set with Plasmodium falciparum [1] and 5.89 in the data set on Plasmodium falciparum [2]. This molecule displayed a CC50 in data set [3] of over 100000 nM.

In the case of `CC[N+]1(CCOc2ccc(C34CC5CC(CC(C5)C3)C4)cc2)CCCCC1`, the values for the pEC50 in the data set on Plasmodium falciparum [1] and in the data set on Plasmodium falciparum [2] were 6.00 and 6.13, respectively. Also, the CC50 in data set [3] worked out at 58200 nM.

As to `O=C(Nc1ccc(Cl)cc1Cl)c1ccc(-c2nc(-c3ccccc3Cl)cs2)cc1`, the pEC50 in the data set on Plasmodium falciparum [1] was 6.82; in the data set with Plasmodium falciparum [2] it was 6.98. The same molecule had a cytotoxic concentration (CC50) in data set [3] of over 7930 nM.

On to `CC(C)N1CCCc2cc(CN3CCC(n4cc(C(=O)NCCCO)nn4)CC3)ccc21`, for which the negative-log EC50 (pEC50) with Plasmodium falciparum [1] is under 5.90; in the data set with Plasmodium falciparum [2], 6.87. The half-maximal cytotoxic concentration (CC50) in data set [3] is over 10000 nM.

Consider `COc1ccc(NC(=O)CN2CCN(S(=O)(=O)c3cccc([N+](=O)[O-])c3)CC2)c(OC)c1`, for which the values for the negative-log EC50 (pEC50) with Plasmodium falciparum [1] and with Plasmodium falciparum [2] were under 4.90 and 5.89, respectively. This molecule also registered a CC50 in data set [3] of over 100000 nM.

With `Cc1nc(NC(=N)N)nc2ccccc12`, the results for the pEC50 in the data set on Plasmodium falciparum [1] and in the data set with Plasmodium falciparum [2] were 6.05 and 6.07, respectively. The molecule also showed a cytotoxic concentration (CC50) in data set [3] of 66400 nM.

With `CC(C)(C)CC(C)(C)Nc1c(-c2ccccc2OC(=O)c2cccc(C(F)(F)F)c2)nc2ccccn12`, the pEC50 in the data set with Plasmodium falciparum [1] was 6.02; with Plasmodium falciparum [2], 6.87. For the same molecule, the CC50 in data set [3] is over 10000 nM.

`Oc1cccc2ccc[n+](CC(O)Cn3c4ccccc4c4ccccc43)c12` (centres undefined): the pEC50 is 6.70 in the data set on Plasmodium falciparum [1] and 6.19 in the data set with Plasmodium falciparum [2]. In addition, the CC50 in data set [3] is 49200 nM.

Take `CCCn1c(=N)c(C(=O)NC2CCCCC2)cc2c(=O)n3cccc(C)c3nc21`: the pEC50 in the data set on Plasmodium falciparum [1] is 6.34; in the data set on Plasmodium falciparum [2], 5.89. This molecule also displayed a CC50 in data set [3] of over 100000 nM.

For `CC(=NNC(=N)N)c1ccc(C)cc1`, the negative logarithm of the EC50 (pEC50) was 5.69 with Plasmodium falciparum [1] and 6.60 in the data set on Plasmodium falciparum [2]. Besides, in data set [3], it took 19300 nM to reach half-maximal cytotoxicity (CC50).
